# Source: PMC8188729 (Nature, 2020)
# Like-named read-outs stand apart in the source and are kept apart here.
# Experiments:
# CA monomer = CA monomer (Human immunodeficiency virus type 1 group M subtype B, UniProt P03348); experiment: biochemical; format: binding
# clinical HIV-1 isolates = experiment: 7-day RT endpoint antiviral assay in human PBMCs, clinical HIV-1 isolates; details: Human immunodeficiency virus 1, PBMC
# Cytotoxicity assay [1] = format: cell-based; details: human, MRC-5 cells
# HIV-1 DNA = experiment: Quantitation of HIV-1 DNA forms in infected MT-2 cells by PCR; details: GS-6207 at 1.25 nM
# Cytotoxicity assay [2] = format: cell-based; details: human, Gal-HepG2 cells
# [3] = Study GS-US-200-4072: pharmacokinetics in participants living with HIV; format: in vivo, human; details: for CD9 / paEC95 (mean), fold EC95 coverage on day 9: PLWH; for concentration at 9 day: both, human, plasma, sc
# CA pentamer = CA pentamer (Human immunodeficiency virus type 1 group M subtype B, UniProt P12493, A154C/M317A/N153C/W316A); experiment: biochemical; format: binding
# HIV-1BaL = experiment: p24 endpoint antiviral assay in macrophage cultures; format: cell-based; details: Human immunodeficiency virus 1, Macrophage, read-out: mean EC50
# HIV-1 CA protein = format: biochemical; details: 20 μM CA, 2 M NaCl
# Gag polyprotein = Gag polyprotein (Human immunodeficiency virus type 1 group M subtype B, UniProt P12493); experiment: biochemical; format: binding
# Cytotoxicity assay [4] = format: cell-based; details: human, Gal-PC-3 cells
# [5] = Study GS-US-200-4070: safety and tolerability in healthy participants; format: in vivo, human; details: for Acne / Any AE / Back pain / Dizziness / Headache / Injection site bruising / Injection site erythema / Injection site induration / Injection site nodule / Injection site pain / Injection site pruritus / Injection site swelling / Nausea / Oropharyngeal pain / Skin mass / Viral upper respiratory tract infection: healthy
# HIV-1 PR = HIV-1 PR (Human immunodeficiency virus type 1 group M subtype B, UniProt P04585); experiment: HIV-1 PR cleavage activity in vitro; format: biochemical
# CA hexamer_M66I = CA hexamer_M66I (Human immunodeficiency virus type 1 group M subtype B, UniProt P12493, A146C/E177C/M198I/M317A/W316A); experiment: Surface plasmon resonance binding assay; design: species or system HIV-1
# HIV-2 isolates = experiment: 7-day RT endpoint antiviral assay in human PBMCs, HIV-2 isolates; details: Human immunodeficiency virus 2, PBMC, read-out: mean EC50
# HIV-1 capsid = experiment: Study GS-US-200-4072: HIV-1 resistance analyses; details: in vivo
# HIV-1IIIb [6] = experiment: microbe, parasite or virus in culture; format: cell-based
# HIV-1IIIb [7] = experiment: In vitro two-drug combination study in HIV-1IIIB-infected MT-2 cells
# Cytotoxicity assay [8] = format: cell-based; details: human, primary human hepatocytes
# Cytotoxicity assay [9] = format: cell-based; details: human, monocyte-derived macrophages
# Cytotoxicity assay [10] = format: cell-based; details: human, Huh-7 cells
# CA hexamer = CA hexamer (Human immunodeficiency virus type 1 group M subtype B, UniProt P12493, A146C/E177C/M317A/W316A); experiment: Surface plasmon resonance binding assay; design: species or system HIV-1
structure (smiles),measurement,setting,value
CC(C)(C#Cc1ccc(-c2ccc(Cl)c3c(NS(C)(=O)=O)nn(CC(F)(F)F)c23)c([C@H](Cc2cc(F)cc(F)c2)NC(=O)Cn2nc(C(F)(F)F)c3c2C(F)(F)[C@@H]2C[C@H]32)n1)S(C)(=O)=O [GS-6207],Kd,CA monomer,2.5 nM
same,EC50,clinical HIV-1 isolates; read-out: EC50 range,0.02 to 0.16 nM
same,EC50,clinical HIV-1 isolates; read-out: mean EC50,0.05 nM
same,CC50,Cytotoxicity assay [1],> 44400 nM
same,HIV cDNA synthesis (late RT products),HIV-1 DNA,did not alter
same,formation of 2-LTR circles,HIV-1 DNA,significantly reduced
same,formation of integrated proviruses,HIV-1 DNA,significantly reduced
same,CC50,Cytotoxicity assay [2],> 44400 nM
same,"CD9 / paEC95 (mean), fold EC95 coverage on day 9",[3]; 20 mg SC,0.67
same,"CD9 / paEC95 (mean), fold EC95 coverage on day 9",[3]; 50 mg SC,1.14
same,"CD9 / paEC95 (mean), fold EC95 coverage on day 9",[3]; 150 mg SC,3.33
same,"CD9 / paEC95 (mean), fold EC95 coverage on day 9",[3]; 450 mg SC,9.87
same,concentration at 9 day,[3]; 20 mg,2.58 ng/mL
same,concentration at 9 day,[3]; 50 mg,4.4 ng/mL
same,concentration at 9 day,[3]; 150 mg,12.9 ng/mL
same,concentration at 9 day,[3]; 450 mg,38.2 ng/mL
same,Kd,CA pentamer,0.22 ± 0.16 nM
same,koff,CA pentamer; CA pentamer,2.7 ± 0.4 x 10^−5 s^−1
same,kon,CA pentamer; CA pentamer,2 ± 1 x 10^5 M^−1s^−1
same,EC50,HIV-1BaL,0.056 nM
same,rate and extent of in vitro capsid assembly,HIV-1 CA protein,dose-dependent increase in the rate and extent of in vitro capsid assembly
same,Kd,Gag polyprotein,1.1 nM
same,CC50,Cytotoxicity assay [4],> 44400 nM
same,Acne,[5]; 30 mg (n = 8),0 n (%)
same,Any AE,[5]; 30 mg (n = 8),4 (50) n (%)
same,Back pain,[5]; 30 mg (n = 8),0 n (%)
same,Dizziness,[5]; 30 mg (n = 8),0 n (%)
same,Headache,[5]; 30 mg (n = 8),2 (25) n (%)
same,Injection site bruising,[5]; 30 mg (n = 8),0 n (%)
same,Injection site erythema,[5]; 30 mg (n = 8),1 (13) n (%)
same,Injection site induration,[5]; 30 mg (n = 8),0 n (%)
same,Injection site nodule,[5]; 30 mg (n = 8),0 n (%)
same,Injection site pain,[5]; 30 mg (n = 8),0 n (%)
same,Injection site pruritus,[5]; 30 mg (n = 8),1 (13) n (%)
same,Injection site swelling,[5]; 30 mg (n = 8),1 (13) n (%)
same,Nausea,[5]; 30 mg (n = 8),1 (13) n (%)
same,Oropharyngeal pain,[5]; 30 mg (n = 8),1 (13) n (%)
same,Skin mass,[5]; 30 mg (n = 8),0 n (%)
same,Viral upper respiratory tract infection,[5]; 30 mg (n = 8),0 n (%)
same,Acne,[5]; 100 mg (n = 8),0 n (%)
same,Any AE,[5]; 100 mg (n = 8),8 (100) n (%)
same,Back pain,[5]; 100 mg (n = 8),0 n (%)
same,Dizziness,[5]; 100 mg (n = 8),0 n (%)
same,Headache,[5]; 100 mg (n = 8),1 (13) n (%)
same,Injection site bruising,[5]; 100 mg (n = 8),0 n (%)
same,Injection site erythema,[5]; 100 mg (n = 8),5 (63) n (%)
same,Injection site induration,[5]; 100 mg (n = 8),0 n (%)
same,Injection site nodule,[5]; 100 mg (n = 8),5 (63) n (%)
same,Injection site pain,[5]; 100 mg (n = 8),3 (38) n (%)
same,Injection site pruritus,[5]; 100 mg (n = 8),0 n (%)
same,Injection site swelling,[5]; 100 mg (n = 8),5 (63) n (%)
same,Nausea,[5]; 100 mg (n = 8),0 n (%)
same,Oropharyngeal pain,[5]; 100 mg (n = 8),0 n (%)
same,Skin mass,[5]; 100 mg (n = 8),0 n (%)
same,Viral upper respiratory tract infection,[5]; 100 mg (n = 8),0 n (%)
same,Acne,[5]; 300 mg (n = 8),0 n (%)
same,Any AE,[5]; 300 mg (n = 8),7 (88) n (%)
same,Back pain,[5]; 300 mg (n = 8),2 (25) n (%)
same,Dizziness,[5]; 300 mg (n = 8),1 (13) n (%)
same,Headache,[5]; 300 mg (n = 8),2 (25) n (%)
same,Injection site bruising,[5]; 300 mg (n = 8),1 (13) n (%)
same,Injection site erythema,[5]; 300 mg (n = 8),6 (75) n (%)
same,Injection site induration,[5]; 300 mg (n = 8),6 (75) n (%)
same,Injection site nodule,[5]; 300 mg (n = 8),3 (38) n (%)
same,Injection site pain,[5]; 300 mg (n = 8),6 (75) n (%)
same,Injection site pruritus,[5]; 300 mg (n = 8),1 (13) n (%)
same,Injection site swelling,[5]; 300 mg (n = 8),1 (13) n (%)
same,Nausea,[5]; 300 mg (n = 8),1 (13) n (%)
same,Oropharyngeal pain,[5]; 300 mg (n = 8),0 n (%)
same,Skin mass,[5]; 300 mg (n = 8),1 (13) n (%)
same,Viral upper respiratory tract infection,[5]; 300 mg (n = 8),0 n (%)
same,Acne,[5]; 450 mg (n = 8),2 (25) n (%)
same,Any AE,[5]; 450 mg (n = 8),6 (75) n (%)
same,Back pain,[5]; 450 mg (n = 8),0 n (%)
same,Dizziness,[5]; 450 mg (n = 8),1 (13) n (%)
same,Headache,[5]; 450 mg (n = 8),0 n (%)
same,Injection site bruising,[5]; 450 mg (n = 8),0 n (%)
same,Injection site erythema,[5]; 450 mg (n = 8),3 (38) n (%)
same,Injection site induration,[5]; 450 mg (n = 8),2 (25) n (%)
same,Injection site nodule,[5]; 450 mg (n = 8),1 (13) n (%)
same,Injection site pain,[5]; 450 mg (n = 8),3 (38) n (%)
same,Injection site pruritus,[5]; 450 mg (n = 8),1 (13) n (%)
same,Injection site swelling,[5]; 450 mg (n = 8),0 n (%)
same,Nausea,[5]; 450 mg (n = 8),0 n (%)
same,Oropharyngeal pain,[5]; 450 mg (n = 8),0 n (%)
same,Skin mass,[5]; 450 mg (n = 8),1 (13) n (%)
same,Viral upper respiratory tract infection,[5]; 450 mg (n = 8),2 (25) n (%)
same,safety and tolerability,"[5]; single SC 30 to 450 mg, healthy participants",generally safe and well tolerated
same,IC50,HIV-1 PR,> 50000 nM
same,Kd,CA hexamer_M66I,60 nM
same,koff,CA hexamer_M66I; CA hexamer_M66I,2.6 ± 0.3 x 10^−3 s^−1
same,kon,CA hexamer_M66I; CA hexamer_M66I,6 ± 4 x 10^4 M^−1s^−1
same,EC50,HIV-2 isolates,0.885 nM
same,decrease in phenotypic susceptibility,HIV-1 capsid,1.6 fold
same,EC50,"HIV-1IIIb [6]; Human immunodeficiency virus 1, MT4, read-out: mean EC50",0.105 nM
same,EC95,HIV-1IIIb [6]; calculated from EC50 and Hill coefficient,0.23 nM
same,Synergy volume,HIV-1IIIb [7],18 ± 8 μM^2.%
same,CC50,Cytotoxicity assay [8],> 50000 nM
same,CC50,Cytotoxicity assay [9],> 50000 nM
same,CC50,Cytotoxicity assay [10],> 44400 nM
same,Kd,CA hexamer,0.24 ± 0.09 nM
same,koff,CA hexamer; CA hexamer,1.4 ± 0.4 x 10^−5 s^−1
same,kon,CA hexamer; CA hexamer,6.5 ± 0.3 x 10^4 M^−1s^−1
